According to patent US20240139333A1, “2,6-DICHLOROPHENYL ESTER COMPOUNDS AND USE THEREOF” (Fusion Pharmaceuticals Inc., priority 2021, published 2024):

Tests used:
[1] = Comparative active ester reactivity study with HOPO nucleophile; details: 1,2-HOPO 1 eq., 22±2° C.
Procedure: (§1) General Experimental Protocol for Comparative Active Ester Reactivity Study with HOPO or HOA Nucleophiles
(§2) To a 4 mL scintillation vial containing Compound A-E (in respective experiments; 1 eq.) was added a stir bar followed by 150 μL of HPLC grade acetonitrile. In another 4 mL scintillation vial containing a respective nucleophile (1 eq.) was added 280 μL HPLC grade water. The solutions were combined and allowed to stir at room temperature (22±2° C.) for 4 hours. Timed aliquots at time (T)=15, 30, 60, 120 and 240 minutes were taken and analyzed by HPLC-MS using elution method 1 (Table 1).

[2] = Comparative active ester reactivity study with HOA nucleophile (N-hydroxy-N-methylbenzamide); details: N-Hydroxy-N-methylbenzamide 1 eq., 22±2° C.
Procedure: as §1, §2

pH stability study = type: physicochemical; details: 20° C.
Procedure: To a 4 mL scintillation vial containing Compound A-E (in respective experiments; 0.8 mg) was added 4 mL of either a pH 3, pH 5 pH 7 or pH 9 buffer to create a 0.2 mg/mL solution. 2 mL of this solution was added to a 2 mL HPLC vial and placed in the auto sampler of an HPLC-MS at 20° C. Timed aliquots at time (T)=15, 30, 60, 120, 240 and 480 minutes were taken and analyzed by HPLC-MS using elution method 1 (Table 3). […]
pH 3 Buffer: Citric acid/Na2HPO4 (79.45 mL 0.1 M-citric acid and 20.55 mL 0.2-Na2HPO4) pH 5 Buffer: Citric acid/Na2HPO4 (48.50 mL 0.1 M-citric acid and 51.50 mL 0.2-Na2HPO4) pH 7 Buffer: Citric acid/Na2HPO4 (17.65 mL 0.1 M-citric acid and 82.35 mL 0.2-Na2HPO4) pH 9 Buffer: Sodium Carbonate/Sodium Bicarbonate (10 mL 0.1 M-Na2CO3 and 90 mL 0.1-NaHCO3)

DMSO stability study = type: physicochemical
Procedure: To a 4 mL scintillation vial containing Compound A-E (in respective experiments; 4 mg) was added a stir bar followed by 500 μL of anhydrous dimethyl sulfoxide and was allowed to stir at room temperature (22±2° C.) for 4 hours. Timed aliquots at time (T)=15, 30, 60, 120 and 240 minutes were taken, dissolved in water to achieve 2% DMSO composition and analyzed by HPLC-MS using elution method 1 (Table 5).

[3] = Nucleophilic reactivity study with L-Lysine; details: L-Lysine 5 equiv, 15 min, 22±2° C.
Procedure: General Experimental Protocol for Nucleophilic Reactivity Study with L-Lysine
To a 4 mL scintillation vial containing Compound A-E (in respective experiments; 1 eq.) was added a stir bar followed by 70 μL of HPLC grade acetonitrile. In another 4 mL scintillation vial containing L-Lysine monohydrochloride (5 eq.) was added 130 μL HPLC grade water followed by diisopropylethylamine (5 eq.). The solutions were combined and allowed to stir at room temperature (22±2° C.). Timed aliquots at time (T)=15, 30, 60 and 120 minutes were taken and analyzed by HPLC-MS using elution method 1 (Table 2).

[4] = Temperature stability study in H2O; type: physicochemical
Procedure: 20° C.: To a 4 mL scintillation vial containing Compound A-E (in respective experiments; 0.8 mg) was added 4 mL of HPLC grade water to create a 0.2 mg/mL solution. 2 mL of this solution was added to a 2 mL HPLC vial and placed in the auto sampler of an HPLC-MS at 20° C. Timed aliquots at time (T)=15, 30, 60, 120, 240 and 480 minutes were taken and analyzed by HPLC-MS using elution method 1 (Table 4).
50° C.: To a 4 mL scintillation vial containing Compound A-E (in respective experiments; 0.8 mg) was added a stir bar followed by 4 mL of HPLC grade water to create a 0.2 mg/mL solution. The vial was capped and allowed to stir in a 50° C. oil bath for 8 hours. Timed aliquots at time (T) =15, 30, 60, 120, 240 and 480 minutes were taken and analyzed by HPLC-MS using elution method 1 (Table 4).

[5] = Comparative active ester reactivity study with HOA nucleophile (benzhydroxamic acid); details: Benzhydroxamic Acid 1 eq., 22±2° C.
Procedure: as §1, §2

[6] = Stability of Compound J at pH = 2; type: physicochemical; details: pH 2, 20° C.
Procedure: To an HPLC vial was added a 0.2 mg/mL solution of Compound J dissolved in H2O (0.1% v/v TFA) at pH=2 and the stability was monitored by HPLC-MS at 20° C. over 16 hours. Timed aliquots at time (T)=0, 30, 60, 120, 180, 240, 480 and 960 minutes were taken and analyzed by HPLC-MS using elution method 4 at 214 nm (Table 9).

In the case of `O=C(CCc1cccnc1)ON1C(=O)CCC1=O` [Compound E, 2,5-Dioxo-1-pyrrolidinyl 3-pyridinepropanoate], the “% Active Ester Remaining” value ([1]; 15 min) is reported as 15.47%, the “% Active Ester Remaining” value ([1]; 30 min) is reported as 12.28% and the “% Active Ester Remaining” value ([1]; 60 min) is reported as 11.06%. For the same compound, the “% Active Ester Remaining” value ([1]; 120 min) was 7.15%, the “% Active Ester Remaining” value ([1]; 240 min) was 3.69% and the “% Active Ester Remaining” value ([2]; 15 min) was 32.07%. The “% Active Ester Remaining” value ([2]; 30 min) was 20.77%, the “% Active Ester Remaining” value ([2]; 60 min) was 11.58% and the “% Active Ester Remaining” value ([2]; 120 min) was 6.52%. For the same compound, the “% Active Ester Remaining” value ([2]; 240 min) was 4.21%, the “% Remaining” value (pH stability study; pH 3 buffer, 15 min) was 80.40% and the “% Remaining” value (pH stability study; pH 3 buffer, 30 min) was 59.68%. For the same compound, the “% Remaining” value (pH stability study; pH 3 buffer, 60 min) was 44.51%, the “% Remaining” value (pH stability study; pH 3 buffer, 120 min) was 26.16% and the “% Remaining” value (pH stability study; pH 3 buffer, 240 min) was 8.98%. For the same compound, the “% Remaining” value (pH stability study; pH 3 buffer, 480 min) was 1.00%, the “% Remaining” value (pH stability study; pH 5 buffer, 15 min) was 85.59% and the “% Remaining” value (pH stability study; pH 5 buffer, 30 min) was 52.98%. The “% Remaining” value (pH stability study; pH 5 buffer, 60 min) was 33.12%, the “% Remaining” value (pH stability study; pH 5 buffer, 120 min) was 13.81% and the “% Remaining” value (pH stability study; pH 5 buffer, 240 min) was 2.33%. For the same compound, the “% Remaining” value (pH stability study; pH 5 buffer, 480 min) was 0%, the “% Remaining” value (pH stability study; pH 7 buffer, 15 min) was 86.24% and the “% Remaining” value (pH stability study; pH 7 buffer, 30 min) was 44.91%. The “% Remaining” value (pH stability study; pH 7 buffer, 60 min) was 19.80%, the “% Remaining” value (pH stability study; pH 7 buffer, 120 min) was 4.02% and the “% Remaining” value (pH stability study; pH 7 buffer, 240 min) was 0%. For the same compound, the “% Remaining” value (pH stability study; pH 9 buffer, 15 min) was 6.98%, the “% Remaining” value (pH stability study; pH 9 buffer, 30 min) was 1.20% and the “% Remaining” value (pH stability study; pH 9 buffer, 60 min) was 0.74%. The “% Remaining” value (pH stability study; pH 9 buffer, 120 min) was 0%, the “% Active Ester Remaining in DMSO at 22 ± 2° C.” value (“% Active Ester Remaining in DMSO” for short) (DMSO stability study; 15 min) was 97.29% and the “% Active Ester Remaining in DMSO” value (DMSO stability study; 30 min) was 97.13%. The “% Active Ester Remaining in DMSO” value (DMSO stability study; 60 min) was 96.83%, the “% Active Ester Remaining in DMSO” value (DMSO stability study; 120 min) was 94.53% and the “% Active Ester Remaining in DMSO” value (DMSO stability study; 240 min) was 91.57%. The “% Active Ester Remaining” value [3] was 0%, the “% Remaining” value ([4]; 20° C., 15 min) was 87.24% and the “% Remaining” value ([4]; 20° C., 30 min) was 78.45%. The “% Remaining” value ([4]; 20° C., 60 min) was 70.03%, the “% Remaining” value ([4]; 20° C., 120 min) was 54.46% and the “% Remaining” value ([4]; 20° C., 240 min) was 24.99%. For the same compound, the “% Remaining” value ([4]; 20° C., 480 min) was 4.50%, the “% Remaining” value ([4]; 50° C., 15 min) was 72.20% and the “% Remaining” value ([4]; 50° C., 30 min) was 47.31%. The “% Remaining” value ([4]; 50° C., 60 min) was 20.75%, the “% Remaining” value ([4]; 50° C., 120 min) was 3.50% and the “% Remaining” value ([4]; 50° C., 240 min) was 0.10%. For the same compound, the “% Remaining” value ([4]; 50° C., 480 min) was 0%, the “% Active Ester Remaining” value ([5]; 15 min) was 1.13% and the “% Active Ester Remaining” value ([5]; 30 min) was 0.85%. For the same compound, the “% Active Ester Remaining” value ([5]; 60 min) was 0.67%, the “% Active Ester Remaining” value ([5]; 120 min) was 0.49% and the “% Active Ester Remaining” value ([5]; 240 min) was 0.35%.
In the case of `CC(=O)N(O)CCCCCNC(=O)CCC(=O)N(O)CCCCCNC(=O)CCC(=O)N(O)CCCCCNC(=O)CCOCCOCCOCCOCCOCCOCCOCCOCCOCCOCCOCCOCCC(=O)Oc1c(Cl)cccc1Cl` [Compound J, 2,6-Dichlorophenyl 1-{[5-(N-hydroxy-3-{8 5-(N-hydroxy-3-{[5-(N-hydroxyacetamido)pentyl]carbamoyl}propanamido)pentyl]carbamoyl}propanamido)pentylic carbamoyl}-3,6,9,12,15,18,21,24,27,30,33,36-dodecaoxanonatriacontan-39-oate], the “% Compound J Remaining” value ([6]; 0 min) is reported as 97.49%, the “% Compound J Remaining” value ([6]; 30 min) is reported as 97.21% and the “% Compound J Remaining” value ([6]; 60 min) is reported as 96.67%. The “% Compound J Remaining” value ([6]; 120 min) was 96.11%, the “% Compound J Remaining” value ([6]; 180 min) was 96.14% and the “% Compound J Remaining” value ([6]; 240 min) was 94.83%. The “% Compound J Remaining” value ([6]; 480 min) was 94.39% and the “% Compound J Remaining” value ([6]; 960 min) was 91.48%.
